The results in this text go back to patent US5393786A, “Method for treating inflammation, ischemia-induced cell damage and muscular dystrophy” (priority 1993, dated 1995).

Where a name gives a salt, the structure may show the parent alone. Read-outs that look alike come from different tables or passages of the source.

Data set [1] has as its system striatal cell layer of the striatum. The data set can be described thus: Stroke model in rats (four-vessel occlusion), striatal damage. It counts as in vivo, male Wistar rats. To be noted: scale 0-3, mean ± SE.
From the text: (§1) Strokes were produced in rats by occluding the four arteries that supply blood to the brain according to the following procedure. Male Wistar rats (250-280 g; Hilltop Laboratories, Scottsdale, Pa.) were anesthetized with metofane and placed into a stereotaxic instrument. A longitudinal incisio was made on the dorsal surface of the neck. The neck muscles were reflected to expose the dorsal surface of the spinal column. The two vertebral arteries were exposed where they pass through the first cervica vertebra. Both arteries were permanently occluded by the application of electrocautery. After coagulation of the vertebral arteries, the rat was removed from the stereotaxic instrument and the surgical wound was sutured. Two longitudinal incisions were then made on the ventral surface of the neck. The two common carotid arteries were exposed and dissected free from surrounding nerves and connective tissue. Reversible atraumatic clamps, fabricated mainly from silicon rubber tubing, were placed around each carotid artery in a manner such that the vessels were not traumatize or occluded. The clamps were externalized through the ventral neck incision. A suture was also placed through the neck dorsal to the carotids, esophagus and trachea, and tied loosely behind the neck. This suture is tied tightly at the time ischemia is induced in order to restrict collateral circulation reaching the brain through the dorsal muscles of the neck. The surgical wounds were then closed. After the surgery, the rats were allowed to recover for 24 hours (free access to water, but no food during this period).
(§2) On the day of testing, test compounds were administered at various times before stroke induction. Strokes (cerebral ischemia) were induced by tightening the clamps around the carotids, thereby stopping blood flow in the carotids. Rats in which strokes were successfully produced lost the righting reflex and became unresponsive to stimuli. Collateral circulatio through the dorsal neck muscles was then restricted by tightening the previously implanted suture. […] After 30 minutes of ischemia, the carotid clamps wer released, the neck suture was loosened, and blood flow to the brain was restored. Following the period of ischemia, the rats were allowed free access to food and water. Rats were again treated with test compounds at various times after the stroke. On the third day after the stroke the animals were sacrificed and their brains were removed, frozen and sectioned through the striatum and hippocampus. Sections were mounted on glass slides and stained with hematoxylin and eosin.
(§3) Two of the areas of the brain that are most susceptible to ischemia induce damage, both in rats and humans, are the CA1 pyramidal cell layer of the hippocampus and the striatal cell layer of the striatum. In animals that remain unresponsive for the 30 minute period of ischemia, the CA1 pyramidal cell layer and the striatal cell layer are completely destroyed. These layers of cells were examined microscopically in histological sections prepared from the hippocampus and striatum. Brain damage was rated according to the following scale:
(§4) 0=no damage, completely intact cell layer
(§5) 1=mild damage, onethird of cell layer dead
(§6) 2=moderate damage, twothirds of cell layer dead
(§7) 3=severe damage, complete destruction of cell layer
(§8) Damage in 10-12 sections from each brain was assessed in order to obtain a accurate estimate of damage. An average damage score was calculated for each treatment group. Scores from treated groups were compared statistically with scores from control groups which received only the vehicle used to suspend the compounds. The level of significance was determined using the Mann WhitneyU-test.
In data set [2] the test system is hippocampal CA1 pyramidal cell layer. The data set can be described thus: Stroke model in rats (four-vessel occlusion), hippocampal CA1 damage. Conditions: for Damage Score, Hippocampus: scale 0-3, mean ± SE.
From the text: as §1, §2, §3, §4, §5, §6, §7, §8
Data set [3] has as its system adjuvant-induced arthritis (uninjected hind paw). The data set can be described thus: Developing Adjuvant-Induced Arthritis Test in Rats. It counts as in vivo, male Lewis-Wistar rats. Conditions: po, 720 h, AUC days 16-30; for inhibition in vivo at 50 mg/kg: 50 mg/kg rat weight × 29, p.o. once daily.
For data set [4], the system named is ischemia-induced cell damage caused by middle cerebral artery occlusion. The data set can be described thus: Middle Cerebral Artery Occlusion Stroke Model. It counts as in vivo, male spontaneously hypertensive rats. To be noted: for toxicity of higher doses (footnote ++): doses above 10/5 mg/kg i.v. The source says:
Strokes were also produced in rats by occluding the middle cerebral artery according to the following procedure. Male spontaneously hypertensive rats were housed in groups of three to four per cage and allowed free access to food and water. The animals were anesthetized with a mixture of 2.5% halothane and air. The anesthetized rats then underwent the following surgical procedure.
A femoral artery of each rat was cannulated to monitor mean arterial pressure and a jugular cannula was inserted in order to provide a means for administering test compounds intravenously. […] The ventral neck area and the area behind each animal's right eye were shaved and washed with antiseptic solution. The right common carotid artery was dissected free of connective tissue through a midline cervical incision and the vessel permanently occluded with a silk ligature. Next, a 1 cm incision perpendicular to, and bisecting a line between the lateral canthus of the right eye and the external auditory canal, was made to expose the temporalis muscle which was retracted and partially excised. Using a dissecting microscope, the right middle cerebral artery was exposed through a 2 mm burr hole drilled 2-3 mm rostral to the fusion of the zygomatic arch with a squamosal bone. Drilling was done under a continuous drip of a 0.9% saline solution to prevent heat injury of the underlying cortex. The dura was cut and retracted to expose the middle cerebral artery.
This artery was occluded in two ways. The first method of occlusion involved permanent cauterization of the artery so that blood flow through the artery was completely eliminated. The second method of occulsion was only temporary (lasting two hours) and involved clamping the artery with microaneurism clips. Test compounds were administered at various times before, during and after occlusion. Each animal's body temperature was maintained at 37° C. during testing using a rectal thermometer connected to a heating pad.
Twenty-four hours after tandem middle cerbral carotid artery occlusion, the test animals were sacrificed and their brains removed and frozen over dry ice. Coronal sections 20 microns thick were cut at half millimeter intervals in a cryostat at -20° C. and dried on a hot plate at 60° C. The sections were then stained with cresyl violet. […] A total infarct volume was then calculated using a computer program that summed all sectional areas measured multiplied by the interval thickness. The lower the infarcted volume obtained, the lower the amount of cell damage caused by the stroke. The level of significance was obtained using Student's "t-test".

Where [5] appears, read: 100 mg/kg orally, 2% acacia, time c (30 min pre, 4 h and 24 h postischemia), control 1.4 ± 0.3.
Where [6] appears, read: 100 mg/kg orally, 2% acacia, time c (30 min pre, 4 h and 24 h postischemia), control 2.5 ± 0.3.
The mark [7] stands for this setting: 25 mg/kg rat weight × 29, p.o. once daily, read-out: % Inhibition of Uninjected Paw Volume Inflammation, Days 16-30.
[8] abbreviates: read-out: % Inhibition of Uninjected Paw Volume Inflammation, Days 16-30.
Where [9] appears, read: 25 mg/kg orally, water, time a (15 min pre, 4 h and 24 h postischemia), control 2.5 ± 0.3.
[10] abbreviates: 100 mg/kg orally, 2% acacia, time c (30 min pre, 4 h and 24 h postischemia), control 2.7 ± 0.2.
Where [11] appears, read: 100 mg/kg orally, water, time a (15 min pre, 4 h and 24 h postischemia), control 2.7 ± 0.2.
[12] abbreviates: 50 mg/kg orally, 2% acacia, time c (30 min pre, 4 h and 24 h postischemia), control 2.71 ± 0.22.
Where [13] appears, read: 50 mg/kg orally, 2% acacia, time c (30 min pre, 4 h and 24 h postischemia), control 2.73 ± 0.22.
The mark [14] stands for this setting: 100 mg/kg orally, 2% acacia, time a (15 min pre, 4 h and 24 h postischemia), control 2.4 ± 0.4.
[15] abbreviates: 100 mg/kg orally, 2% acacia, time a (15 min pre, 4 h and 24 h postischemia), control 2.9 ± 0.1.

Regarding `CC(C)(C)c1cc(CN2CCCC2)cc(C(C)(C)C)c1O.Cl` [4-(1-pyrrolidinomethyl)-2,6-bis(1,1-dimethylethyl)phenol hydrochloride], in data set [1] (setting [5]), the “Damage Score, Striatum” value is 1.5 ± 0.4. In addition, in data set [2] (setting [6]), the “Damage Score, Hippocampus” value was 1.2 ± 0.5.

Take `CC(C)(C)c1cc(CN2CCOCC2)cc(C(C)(C)C)c1O` [4-(4-morpholinylmethyl)-2,6-bis(1,1-dimethylethyl)phenol]: in data set [3] (setting [7]), the inhibition in vivo at 25 mg/kg was found to be 40.6%. Besides, the inhibition in vivo at 50 mg/kg in data set [3] (setting [8]) came out at 71.1%.

Regarding `CCNC(C)c1cc(C(C)(C)C)c(O)c(C(C)(C)C)c1.Cl` (stereo not drawn) [4-[1-(ethylamino)ethyl]-2,6-bis(1,1-dimethylethyl)phenol hydrochloride], the “Damage Score, Striatum” value in data set [1] (50 mg/kg orally, 2% acacia, time c (30 min pre, 4 h and 24 h postischemia), control 1.9 ± 0.4, only 7 rats because of toxicity) amounted to 1.5 ± 0.5. Also, the “toxicity in stroke model (footnote ****)” value in data set [2] (50 mg/kg orally, 2% acacia, time c, data on only 7 rats) is “data obtained on only 7 rats because of toxicity problems”. Besides, in data set [2] (50 mg/kg orally, 2% acacia, time c (30 min pre, 4 h and 24 h postischemia), control 2.6 ± 0.3, only 7 rats because of toxicity), the “Damage Score, Hippocampus” value is given as 0.9 ± 0.4. In addition, the “toxicity of higher doses (footnote ++)” value in data set [4] (temporary occlusion, 10% DMSO in saline) is “higher doses were toxic in this model”. For the same compound, the “Infarct Volume” value in data set [4] (temporary occlusion, 10/5 mg/kg i.v. (per hour), 10% DMSO in saline, time d, control 106 ± 15) is listed as 92 ± 10 (mm)^3.

As for `CN(C)CCc1cc(C(C)(C)C)c(O)c(C(C)(C)C)c1.Cl` [4-[2-(dimethylamino)ethyl]-2,6-bis(1,1-dimethylethyl)phenol hydrochloride], the “Damage Score, Striatum” value in data set [1] (setting [9]) is given as 0.9 ± 0.3; in data set [1] (50 mg/kg orally, water, time a (15 min pre, 4 h and 24 h postischemia), control 2.8 ± 0.2) it was 0.3 ± 0.2; in data set [1] (setting [10]), 0.0 ± 0.0; in data set [1] (setting [11]) it was 0.1 ± 0.0. Moreover, the “Damage Score, Hippocampus” value was 1.6 ± 0.3 in data set [2] (setting [9]); 0.8 ± 0.4 in data set [2] (50 mg/kg orally, water, time a (15 min pre, 4 h and 24 h postischemia), control 3.0 ± 0.0); 0.2 ± 0.2 in data set [2] (setting [10]); 0.2 ± 0.2 in data set [2] (setting [11]). The “toxicity of higher doses (footnote ++)” value in data set [4] (permanent occlusion, saline) is “higher doses were toxic in this model”. Also, the “Infarct Volume” value in data set [4] (permanent occlusion, 10/5 mg/kg i.v. (per hour), saline, time c, control 154 ± 11) is on record as 161 ± 17 (mm)^3; in data set [4] (temporary occlusion, 20/5 mg/kg i.v. (per hour), saline, time d, control 84.7 ± 6.4), 77.6 ± 5.5 (mm)^3.

On to `CN(C)CCc1cc(C(C)(C)C)c(O)c(C(C)(C)C)c1` [4-[2-(dimethylamino)ethyl]-2,6-bis(1,1-dimethylethyl)phenol], for which the “Damage Score, Striatum” value in data set [1] (setting [10]) is reported as 0.0 ± 0.0. In data set [2] (setting [10]), the “Damage Score, Hippocampus” value is listed as 0.0 ± 0.0.

With `CNCCc1ccc(O)c(C(C)(C)C)c1.Cl` [4-[2-(methylamino)ethyl]-2-(1,1-dimethylethyl)phenol hydrochloride], the inhibition in vivo at 25 mg/kg in data set [3] (Rattus norvegicus, read-out: % Inhibition of Uninjected Paw Volume Inflammation, Days 16-30, 25 mg/kg rat weight × 29, p.o. once daily) was found to be 76.6%. For the same compound, in data set [1] (setting [12]), the “Damage Score, Striatum” value is on record as 1.62 ± 0.35. Also, the “Damage Score, Hippocampus” value in data set [2] (setting [13]) came to 2.78 ± 0.12.

As to `CCN(C)Cc1cc(C(C)(C)C)c(O)c(C(C)(C)C)c1` [4-[(N-ethyl-N-methylamino)methyl]-2,6-bis(1,1-dimethylethyl)phenol methanesulfonate], in data set [3] (setting [7]), the inhibition in vivo at 25 mg/kg came to 26%. The “Damage Score, Striatum” value in data set [1] (setting [14]) turned out to be 1.1 ± 0.4. In data set [2] (setting [15]), the “Damage Score, Hippocampus” value was 1.1 ± 0.5.

With `CCN(CC)Cc1cc(C(C)(C)C)c(O)c(C(C)(C)C)c1.Cl` [4-[(diethylamino)methyl]-2,6-bis(1,1-dimethylethyl)phenol hydrochloride], the “Damage Score, Striatum” value in data set [1] (setting [5]) worked out at 1.7 ± 0.6. In data set [2] (setting [6]), the “Damage Score, Hippocampus” value is reported as 2.0 ± 0.5.

With `CN(C)Cc1cc(C(C)(C)C)c(O)c(C(C)(C)C)c1` [4-[(dimethylamino)methyl]-2,6-bis(1,1-dimethylethyl)phenol methanesulfonate], in data set [1] (setting [14]), the “Damage Score, Striatum” value is 0.8 ± 0.3. The “Damage Score, Hippocampus” value in data set [2] (setting [15]) stood at 0.9 ± 0.3. Further, the “Infarct Volume” value in data set [4] (temporary occlusion, 30/5 mg/kg i.v. (per hour), saline, time d (15 min before clamp removal, then 24 h), control 97 ± 10) is 69 ± 9 (mm)^3.

Regarding `CCNCc1cc(C(C)(C)C)c(O)c(C(C)(C)C)c1` [4-[(ethylamino)methyl]-2,6-bis(1,1-dimethylethyl)phenol nitrate], in data set [1] (50 mg/kg orally, 2% acacia, time c (30 min pre, 4 h and 24 h postischemia), control 2.30 ± 0.32), the “Damage Score, Striatum” value was found to be 1.26 ± 0.40. The “Damage Score, Hippocampus” value in data set [2] (50 mg/kg orally, 2% acacia, time c (30 min pre, 4 h and 24 h postischemia), control 2.90 ± 0.04) worked out at 1.81 ± 0.36.

As to `CC(C)NCc1cc(C(C)(C)C)c(O)c(C(C)(C)C)c1` [4-[(isopropylamino)methyl]-2,6-bis(1,1-dimethylethyl)-phenol hydrochloride], in data set [3] (setting [7]), the inhibition in vivo at 25 mg/kg is 4.9%.

Regarding `CCCNCc1cc(C(C)(C)C)c(O)c(C(C)(C)C)c1.Cl` [4-[(n-propylamino)methyl]-2,6-bis(1,1-dimethylethyl)phenol hydrochloride], the “Damage Score, Striatum” value in data set [1] (50 mg/kg orally, distilled water, time c (30 min pre, 4 h and 24 h postischemia), control 2.53 ± 0.22) was found to be 1.05 ± 0.33. For the same compound, the “Damage Score, Hippocampus” value in data set [2] (50 mg/kg orally, distilled water, time c (30 min pre, 4 h and 24 h postischemia), control 2.96 ± 0.03) was determined as 1.48 ± 0.34.

For `CC(C)(C)NCc1cc(C(C)(C)C)c(O)c(C(C)(C)C)c1.Cl` [4-{[(1,1-dimethylethyl)amino]methyl}-2,6-bis(1,1dimethylethyl)phenol hydrochloride], in data set [3] (setting [7]), the inhibition in vivo at 25 mg/kg turned out to be 3.9%. For the same compound, the “Damage Score, Striatum” value in data set [1] (setting [12]) was 0.75 ± 0.35. The “Damage Score, Hippocampus” value in data set [2] (setting [13]) was determined as 1.72 ± 0.43.

On to `CN(Cc1cc(C(C)(C)C)c(O)c(C(C)(C)C)c1)Cc1cc(C(C)(C)C)c(O)c(C(C)(C)C)c1.Cl` [4-{[N-methyl-N-(4-hydroxy-3,5-bis(1,1-dimethylethyl)benzyl)amino]methyl}-2,6-bis(1,1-dimethylethyl)phenol hydrochloride], for which the “Damage Score, Striatum” value in data set [1] (setting [10]) came to 1.8 ± 0.4. For the same compound, in data set [2] (setting [10]), the “Damage Score, Hippocampus” value is on record as 2.9 ± 0.1.

Regarding `CN(Cc1cc(C(C)(C)C)c(O)c(C(C)(C)C)c1)Cc1cc(C(C)(C)C)c(O)c(C(C)(C)C)c1` [4-{[N-methyl-N-(4-hydroxy-3,5-bis(1,1-dimethylethyl)benzyl)amino]methyl}-2,6-bis(1,1-dimethylethyl)phenol], the inhibition in vivo at 50 mg/kg in data set [3] (setting [8]) amounted to 77%. Besides, the “Damage Score, Striatum” value in data set [1] (setting [10]) is reported as 2.4 ± 0.4. For the same compound, the “Damage Score, Hippocampus” value in data set [2] (setting [10]) amounted to 2.9 ± 0.2.

`CN(C)C(=O)c1cc(C(C)(C)C)c(O)c(C(C)(C)C)c1` [N,N-dimethyl-3,5-bis(1,1-dimethylethyl)-4-hydroxybenzamide]: the inhibition in vivo at 50 mg/kg in data set [3] (setting [8]) came out at 64.4%.

On to `CC(C)(C)c1cc(C(=O)Nc2ccccc2Cl)cc(C(C)(C)C)c1O` [N-2-chlorophenyl-3,5-bis(1,1-dimethylethyl)-4-hydroxy-benzamide], for which the inhibition in vivo at 50 mg/kg in data set [3] (setting [8]) was determined as 8.7%.
